Assay results as given in patent US5843889A, “Glycopeptide antibiotic derivatives” (Eli Lilly and Company, priority 1997, dated 1998).
In brackets after ≈: the same amount, converted by molar mass.

How the values were obtained:
Assay in all cases: MIC, standard broth micro-dilution assay
Format in all cases: cell-based
[1] = test system: Entercoccus gallinarum 245
Method: (§1) The formula I compounds have in vitro and in vivo activity against Gram-positive pathogenic bacteria. The MIC's were determined using a standard broth micro-dilution assay.

[2] = test system: Entercoccus faecalis 2041
Method: as §1

[3] = test system: Entercoccus faecalis 276
Method: as §1

| SMILES | MIC [1] [µg/mL] | MIC [2] [µg/mL] | MIC [3] [µg/mL] |
| --- | --- | --- | --- |
| CCCCCCCCOc1ccc(-c2ccc(CNC3(C)CC(OC4C(Oc5c6cc7cc5Oc5ccc(cc5Cl)C(OC5CC(C)(N)C(O)C(C)O5)C5NC(=O)C(NC(=O)C7NC(=O)C(CC(N)=O)NC(=O)C(NC(=O)C(CC(C)C)NC)C(O)c7ccc(c(Cl)c7)O6)c6ccc(O)c(c6)-c6c(O)cc(O)cc6C(C(=O)O)NC5=O)OC(CO)C(O)C4O)OC(C)C3O)cc2)cc1 (stereo not drawn) [Compound 23, 4-[4-octyloxyphenyl]benzyl] | 8 (≈ 4.24 µM) | 32 (≈ 17 µM) | 32 (≈ 17 µM) |
| CNC(CC(C)C)C(=O)NC1C(=O)NC(CC(N)=O)C(=O)NC2C(=O)NC3C(=O)NC(C(=O)NC(C(=O)O)c4cc(O)cc(O)c4-c4cc3ccc4O)C(OC3CC(C)(N)C(O)C(C)O3)c3ccc(c(Cl)c3)Oc3cc2cc(c3OC2OC(CO)C(O)C(O)C2OC2CC(C)(NCc3cccnc3)C(O)C(C)O2)Oc2ccc(cc2Cl)C1O (stereo not drawn) [Compound 24, 3-pyridylmethyl] | 0.25 (≈ 0.148 µM) | ≤ 0.06 | 0.25 (≈ 0.148 µM) |
| CNC(CC(C)C)C(=O)NC1C(=O)NC(CC(N)=O)C(=O)NC2C(=O)NC3C(=O)NC(C(=O)NC(C(=O)O)c4cc(O)cc(O)c4-c4cc3ccc4O)C(OC3CC(C)(N)C(O)C(C)O3)c3ccc(c(Cl)c3)Oc3cc2cc(c3OC2OC(CO)C(O)C(O)C2OC2CC(C)(NCc3cnc4ccccc4c3)C(O)C(C)O2)Oc2ccc(cc2Cl)C1O (stereo not drawn) [Compound 28, 3-quinolylmethyl] | 0.25 (≈ 0.144 µM) | 0.25 (≈ 0.144 µM) | ≤ 0.06 |
| CNC(CC(C)C)C(=O)NC1C(=O)NC(CC(N)=O)C(=O)NC2C(=O)NC3C(=O)NC(C(=O)NC(C(=O)O)c4cc(O)cc(O)c4-c4cc3ccc4O)C(OC3CC(C)(N)C(O)C(C)O3)c3ccc(c(Cl)c3)Oc3cc2cc(c3OC2OC(CO)C(O)C(O)C2OC2CC(C)(NCc3ccc4ccccc4n3)C(O)C(C)O2)Oc2ccc(cc2Cl)C1O (stereo not drawn) [Compound 30, 2-quinolylmethyl] | ≤ 0.06 | ≤ 0.06 | 0.25 (≈ 0.144 µM) |
| CNC(CC(C)C)C(=O)NC1C(=O)NC(CC(N)=O)C(=O)NC2C(=O)NC3C(=O)NC(C(=O)NC(C(=O)O)c4cc(O)cc(O)c4-c4cc3ccc4O)C(OC3CC(C)(N)C(O)C(C)O3)c3ccc(c(Cl)c3)Oc3cc2cc(c3OC2OC(CO)C(O)C(O)C2OC2CC(C)(NCCc3ccc(Cc4ccccc4)cc3)C(O)C(C)O2)Oc2ccc(cc2Cl)C1O (stereo not drawn) [Compound 35, 4 -benzylphenethyl] | ≤ 0.06 | ≤ 0.06 | ≤ 0.06 |
| CNC(CC(C)C)C(=O)NC1C(=O)NC(CC(N)=O)C(=O)NC2C(=O)NC3C(=O)NC(C(=O)NC(C(=O)O)c4cc(O)cc(O)c4-c4cc3ccc4O)C(OC3CC(C)(N)C(O)C(C)O3)c3ccc(c(Cl)c3)Oc3cc2cc(c3OC2OC(CO)C(O)C(O)C2OC2CC(C)(NCc3ccc(OCc4ccccc4)c(OCc4ccccc4)c3)C(O)C(C)O2)Oc2ccc(cc2Cl)C1O (stereo not drawn) [Compound 53] | 2 (≈ 1.06 µM) | 1 (≈ 0.528 µM) | 8 (≈ 4.22 µM) |
| CNC(CC(C)C)C(=O)NC1C(=O)NC(CC(N)=O)C(=O)NC2C(=O)NC3C(=O)NC(C(=O)NC(C(=O)O)c4cc(O)cc(O)c4-c4cc3ccc4O)C(OC3CC(C)(N)C(O)C(C)O3)c3ccc(c(Cl)c3)Oc3cc2cc(c3OC2OC(CO)C(O)C(O)C2OC2CC(C)(NCc3ccc(-c4ccc(OC)cc4)cc3)C(O)C(C)O2)Oc2ccc(cc2Cl)C1O (stereo not drawn) [Compound 54, 4-[4-methoxyphenyl]benzyl] | 0.5 (≈ 0.28 µM) | ≤ 0.06 | 1 (≈ 0.559 µM) |
| CNC(CC(C)C)C(=O)NC1C(=O)NC(CC(N)=O)C(=O)NC2C(=O)NC3C(=O)NC(C(=O)NC(C(=O)O)c4cc(O)cc(O)c4-c4cc3ccc4O)C(OC3CC(C)(N)C(O)C(C)O3)c3ccc(c(Cl)c3)Oc3cc2cc(c3OC2OC(CO)C(O)C(O)C2OC2CC(C)(NCCc3cccc(Oc4ccccc4)c3)C(O)C(C)O2)Oc2ccc(cc2Cl)C1O (stereo not drawn) [Compound 62, 3-phenoxyphenethyl] | 4 (≈ 2.24 µM) | ≤ 0.06 | 0.5 (≈ 0.28 µM) |
| CNC(CC(C)C)C(=O)NC1C(=O)NC(CC(N)=O)C(=O)NC2C(=O)NC3C(=O)NC(C(=O)NC(C(=O)O)c4cc(O)cc(O)c4-c4cc3ccc4O)C(OC3CC(C)(N)C(O)C(C)O3)c3ccc(c(Cl)c3)Oc3cc2cc(c3OC2OC(CO)C(O)C(O)C2OC2CC(C)(NCc3ccc(-c4ccc([N+](=O)[O-])cc4)cc3)C(O)C(C)O2)Oc2ccc(cc2Cl)C1O (stereo not drawn) [Compound 64, 4-[4-nitrophenyl]benzyl] | 2 (≈ 1.11 µM) | ≤ 0.06 | 0.5 (≈ 0.277 µM) |
| CNC(CC(C)C)C(=O)NC1C(=O)NC(CC(N)=O)C(=O)NC2C(=O)NC3C(=O)NC(C(=O)NC(C(=O)O)c4cc(O)cc(O)c4-c4cc3ccc4O)C(OC3CC(C)(N)C(O)C(C)O3)c3ccc(c(Cl)c3)Oc3cc2cc(c3OC2OC(CO)C(O)C(O)C2OC2CC(C)(NCc3ccc4cc(OC)ccc4c3)C(O)C(C)O2)Oc2ccc(cc2Cl)C1O (stereo not drawn) [Compound 65, 6-methoxy-2-naphthylmethyl] | 4 (≈ 2.27 µM) | ≤ 0.06 | 0.5 (≈ 0.284 µM) |
| CNC(CC(C)C)C(=O)NC1C(=O)NC(CC(N)=O)C(=O)NC2C(=O)NC3C(=O)NC(C(=O)NC(C(=O)O)c4cc(O)cc(O)c4-c4cc3ccc4O)C(OC3CC(C)(N)C(O)C(C)O3)c3ccc(c(Cl)c3)Oc3cc2cc(c3OC2OC(CO)C(O)C(O)C2OC2CC(C)(NCc3cc(C)cs3)C(O)C(C)O2)Oc2ccc(cc2Cl)C1O (stereo not drawn) [Compound 66, 3-methyl-5-thienylmethyl] | 8 (≈ 4.7 µM) | ≤ 0.06 | ≤ 0.06 |
| CNC(CC(C)C)C(=O)NC1C(=O)NC(CC(N)=O)C(=O)NC2C(=O)NC3C(=O)NC(C(=O)NC(C(=O)O)c4cc(O)cc(O)c4-c4cc3ccc4O)C(OC3CC(C)(N)C(O)C(C)O3)c3ccc(c(Cl)c3)Oc3cc2cc(c3OC2OC(CO)C(O)C(O)C2OC2CC(C)(NCc3ccc(-c4ccccc4)s3)C(O)C(C)O2)Oc2ccc(cc2Cl)C1O (stereo not drawn) [Compound 67, 5-phenyl-2-thienylmethyl] | 2 (≈ 1.13 µM) | ≤ 0.06 | ≤ 0.06 |
| CNC(CC(C)C)C(=O)NC1C(=O)NC(CC(N)=O)C(=O)NC2C(=O)NC3C(=O)NC(C(=O)NC(C(=O)O)c4cc(O)cc(O)c4-c4cc3ccc4O)C(OC3CC(C)(N)C(O)C(C)O3)c3ccc(c(Cl)c3)Oc3cc2cc(c3OC2OC(CO)C(O)C(O)C2OC2CC(C)(NCCc3ccc(OCc4ccccc4)cc3)C(O)C(C)O2)Oc2ccc(cc2Cl)C1O (stereo not drawn) [Compound 68, 4-benzyloxyphenethyl] | 4 (≈ 2.22 µM) | ≤ 0.06 | ≤ 0.06 |
| CNC(CC(C)C)C(=O)NC1C(=O)NC(CC(N)=O)C(=O)NC2C(=O)NC3C(=O)NC(C(=O)NC(C(=O)O)c4cc(O)cc(O)c4-c4cc3ccc4O)C(OC3CC(C)(N)C(O)C(C)O3)c3ccc(c(Cl)c3)Oc3cc2cc(c3OC2OC(CO)C(O)C(O)C2OC2CC(C)(NCc3ccc(Oc4ccccc4[N+](=O)[O-])cc3)C(O)C(C)O2)Oc2ccc(cc2Cl)C1O (stereo not drawn) [Compound 70, 4-[2-nitrophenoxy]benzyl] | 2 (≈ 1.1 µM) | ≤ 0.06 | ≤ 0.06 |
| CNC(CC(C)C)C(=O)NC1C(=O)NC(CC(N)=O)C(=O)NC2C(=O)NC3C(=O)NC(C(=O)NC(C(=O)O)c4cc(O)cc(O)c4-c4cc3ccc4O)C(OC3CC(C)(N)C(O)C(C)O3)c3ccc(c(Cl)c3)Oc3cc2cc(c3OC2OC(CO)C(O)C(O)C2OC2CC(C)(NCc3ccc(-c4ccc(OC)cc4)s3)C(O)C(C)O2)Oc2ccc(cc2Cl)C1O (stereo not drawn) [Compound 71, 5-[4-methoxyphenyl]-2-thienylinethyl] | 8 (≈ 4.46 µM) | 1 (≈ 0.557 µM) | 2 (≈ 1.11 µM) |
| CNC(CC(C)C)C(=O)NC1C(=O)NC(CC(N)=O)C(=O)NC2C(=O)NC3C(=O)NC(C(=O)NC(C(=O)O)c4cc(O)cc(O)c4-c4cc3ccc4O)C(OC3CC(C)(N)C(O)C(C)O3)c3ccc(c(Cl)c3)Oc3cc2cc(c3OC2OC(CO)C(O)C(O)C2OC2CC(C)(NCc3ccc(OC(F)F)cc3)C(O)C(C)O2)Oc2ccc(cc2Cl)C1O (stereo not drawn) [Compound 72, 4-difluormethoxybenzyl] | 4 (≈ 2.29 µM) | ≤ 0.06 | ≤ 0.06 |
| CNC(CC(C)C)C(=O)NC1C(=O)NC(CC(N)=O)C(=O)NC2C(=O)NC3C(=O)NC(C(=O)NC(C(=O)O)c4cc(O)cc(O)c4-c4cc3ccc4O)C(OC3CC(C)(N)C(O)C(C)O3)c3ccc(c(Cl)c3)Oc3cc2cc(c3OC2OC(CO)C(O)C(O)C2OC2CC(C)(NCc3ccc(OCCOCCCl)cc3)C(O)C(C)O2)Oc2ccc(cc2Cl)C1O (stereo not drawn) [Compound 75] | 4 (≈ 2.22 µM) | ≤ 0.06 | ≤ 0.06 |
| CNC(CC(C)C)C(=O)NC1C(=O)NC(CC(N)=O)C(=O)NC2C(=O)NC3C(=O)NC(C(=O)NC(C(=O)O)c4cc(O)cc(O)c4-c4cc3ccc4O)C(OC3CC(C)(N)C(O)C(C)O3)c3ccc(c(Cl)c3)Oc3cc2cc(c3OC2OC(CO)C(O)C(O)C2OC2CC(C)(NCc3ccc(C)c(C)c3)C(O)C(C)O2)Oc2ccc(cc2Cl)C1O (stereo not drawn) [Compound 76, 3,4-dimethylbenzyl] | 4 (≈ 2.34 µM) | ≤ 0.06 | ≤ 0.06 |
| CNC(CC(C)C)C(=O)NC1C(=O)NC(CC(N)=O)C(=O)NC2C(=O)NC3C(=O)NC(C(=O)NC(C(=O)O)c4cc(O)cc(O)c4-c4cc3ccc4O)C(OC3CC(C)(N)C(O)C(C)O3)c3ccc(c(Cl)c3)Oc3cc2cc(c3OC2OC(CO)C(O)C(O)C2OC2CC(C)(NCc3cccc(OC(C)=O)c3)C(O)C(C)O2)Oc2ccc(cc2Cl)C1O (stereo not drawn) [Compound 77, 3-acetoxybenzyl] | 0.25 (≈ 0.144 µM) | 0.25 (≈ 0.144 µM) | 0.25 (≈ 0.144 µM) |
| CNC(CC(C)C)C(=O)NC1C(=O)NC(CC(N)=O)C(=O)NC2C(=O)NC3C(=O)NC(C(=O)NC(C(=O)O)c4cc(O)cc(O)c4-c4cc3ccc4O)C(OC3CC(C)(N)C(O)C(C)O3)c3ccc(c(Cl)c3)Oc3cc2cc(c3OC2OC(CO)C(O)C(O)C2OC2CC(C)(NCc3ccc(C#Cc4ccccc4)cc3)C(O)C(C)O2)Oc2ccc(cc2Cl)C1O (stereo not drawn) [Compound 79, 4-phenylethynylbenzyl] | ≤ 0.06 | ≤ 0.06 | ≤ 0.06 |
